Test results reported in US12091411B2, “IRAK degraders and uses thereof” (Kymera Therapeutics, Inc., priority 2022, dated 2024).
Read-outs that look alike come from different tables or passages of the source.

Target: T1, IRAK4 (Homo sapiens, UniProt Q9NWZ3)
T1 construct: Degradation of IRAK4 in OCI-LY10 was quantitatively measured using Meso Scale Discovery technology; endogenous in cells; host or cells: OCI-LY10
T1 sequence (Q9NWZ3 1-460): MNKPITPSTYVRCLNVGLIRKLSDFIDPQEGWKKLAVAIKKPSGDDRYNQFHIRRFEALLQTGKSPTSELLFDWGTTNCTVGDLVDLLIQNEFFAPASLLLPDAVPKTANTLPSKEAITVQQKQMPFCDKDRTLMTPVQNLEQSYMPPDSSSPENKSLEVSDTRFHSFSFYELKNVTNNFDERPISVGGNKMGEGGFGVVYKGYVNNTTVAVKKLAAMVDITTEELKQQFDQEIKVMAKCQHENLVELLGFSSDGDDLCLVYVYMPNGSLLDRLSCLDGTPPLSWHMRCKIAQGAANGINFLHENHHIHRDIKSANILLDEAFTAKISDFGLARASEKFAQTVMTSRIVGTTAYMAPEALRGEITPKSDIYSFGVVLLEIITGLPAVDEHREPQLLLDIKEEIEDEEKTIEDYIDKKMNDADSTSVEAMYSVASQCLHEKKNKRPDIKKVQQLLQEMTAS
Assay: IRAK4 MSD Degradation in OCI-LY10
Assay type: cell-based
Settings: OCI-LY10 cells, MSD
How it was run: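 DC50, from a three-parameter logistic fit and reported as letter bins A (<0.01 μM), B, C, D (>0.2 μM or not tested), reflects IRAK4 loss measured by MSD electrochemiluminescence in OCI-LY10 lysates. Treatment: 8 doses, 1:3 steps, top 1 to 10 μM, 4 to 24 h, 37 °C.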

[1] = 4 hrs incubation, read-out: IRAK4 degradation in OCI-LY10 at 4 hrs: DC50
[2] = 24 hrs incubation, read-out: IRAK4 degradation in OCI-LY10 at 24 hrs: DC50

| Compound | DC50 [1] [nM] | DC50 [2] [nM] |
| --- | --- | --- |
| CN(C[C@H]1CC[C@H](n2cc3cc(NC(=O)c4cccc(C(F)(F)F)n4)c(C#N)cc3n2)CC1)C1CCN(c2cccc3c2n(C)c(=O)n3C2CCC(=O)NC2=O)CC1F (some centres unmarked) [I-558] | > 200 | > 200 |
| CN(C[C@H]1CC[C@H](n2cc3cc(NC(=O)c4cccc(C(F)(F)F)n4)c(S(C)(=O)=O)cc3n2)CC1)C1CCN(c2cccc3c2n(C)c(=O)n3C2CCC(=O)NC2=O)CC1F (some centres unmarked) [I-559] | > 200 | > 200 |
| CN(C[C@H]1CC[C@H](n2cc3cc(NC(=O)c4cccc(C(F)(F)F)n4)c(S(C)(=N)=O)cc3n2)CC1)C1CCN(c2cccc3c2n(C)c(=O)n3C2CCC(=O)NC2=O)CC1F (some centres unmarked) [I-560] | > 200 | > 200 |
| CN(C[C@H]1CC[C@H](n2cc3cc(NC(=O)c4cccc(C(F)(F)F)n4)c([S+](C)[O-])cc3n2)CC1)C1CCN(c2cccc3c2n(C)c(=O)n3C2CCC(=O)NC2=O)CC1F (some centres unmarked) [I-561] | > 200 | > 200 |
| COc1ccc2c(c1N1CCC(N(C)C[C@H]3CC[C@H](n4cc(NC(=O)c5cnn6cccnc56)c(C(F)F)n4)CC3)C(F)C1)n(C)c(=O)n2C1CCC(=O)NC1=O (some centres unmarked) [I-563] | > 200 | > 200 |
| Cn1c(=O)n(C2CCC(=O)NC2=O)c2cccc(N3CC(F)(F)C34CN(C[C@H]3CC[C@H](n5cc6cc(NC(=O)c7cccc(C(F)(F)F)n7)c(C#N)cc6n5)CC3)C4)c21 (some centres unmarked) [I-564] | > 200 | > 200 |
| Cn1c(=O)n(C2CCC(=O)NC2=O)c2cccc(N3CC4(C3)N(C[C@H]3CC[C@H](n5cc6cc(NC(=O)c7cccc(C(F)(F)F)n7)c(C#N)cc6n5)CC3)CC4(F)F)c21 (some centres unmarked) [I-565] | > 200 | > 200 |
| Cn1c(=O)n(C2CCC(=O)NC2=O)c2cccc(N3CCC(N4CC5(CCC(n6cc7cc(NC(=O)c8cccc(C(F)(F)F)n8)c(C#N)cc7n6)CC5)C4)C(F)(F)C3)c21 (centres unmarked) [I-566] | > 200 | > 200 |
| Cn1c(=O)n(C2CCC(=O)NC2=O)c2cccc(N3CCC(F)(CN4CC5(CCC(n6cc7cc(NC(=O)c8cccc(C(F)(F)F)n8)c(C#N)cc7n6)CC5)C4)CC3)c21 (centres unmarked) [I-567] | > 200 | > 200 |
| Cn1c(=O)n(C2CCC(=O)NC2=O)c2ccc(C3CCN(C[C@H]4CC[C@H](n5cc6cc(NC(=O)c7cccc(C(F)(F)F)n7)c(C#N)cc6n5)CC4)CC3(F)F)cc21 (some centres unmarked) [I-568] | > 200 | > 200 |
| Cn1c(=O)n(C2CCC(=O)NC2=O)c2ccc(C3CCN(C[C@H]4CC[C@H](n5cc6cc(NC(=O)c7cccc(C(F)(F)F)n7)c(C(F)F)cc6n5)CC4)CC3(F)F)cc21 (some centres unmarked) [I-569] | > 200 | > 200 |
| CN(C[C@H]1CC[C@H](n2cc(NC(=O)c3cnn4cccnc34)c(C(F)F)n2)CC1)C1CCN(c2ccc3c(c2)n(C)c(=O)n3C2CCC(=O)NC2=O)CC1(F)F (some centres unmarked) [I-570] | > 200 | – |
| Cn1c(=O)n(C2CCC(=O)NC2=O)c2cccc([C@H]3C[C@H](COC4CCN(C[C@H]5CC[C@H](n6cc(NC(=O)c7cnn8ccc(N9C[C@H]%10C[C@@H]9CO%10)nc78)c(C(F)F)n6)CC5)CC4F)C3)c21 (some centres unmarked) [I-571] | > 200 | > 200 |
| Cn1c(=O)n(C2CCC(=O)NC2=O)c2cccc([C@H]3C[C@H](CN4CCN(C[C@H]5CC[C@H](n6cc(NC(=O)c7cnn8cccnc78)c(C(F)F)n6)CC5)CC4)C3)c21 (some centres unmarked) [I-572] | > 200 | > 200 |
| Cn1c(=O)n(C2CCC(=O)NC2=O)c2cccc([C@H]3C[C@](F)(CN4CCN(C[C@H]5CC[C@H](n6cc(NC(=O)c7cnn8ccc(N9C[C@H]%10CC9CO%10)nc78)c(C(F)F)n6)CC5)CC4)C3)c21 (some centres unmarked) [I-574] | > 200 | > 200 |
| CO[C@]1(CN2CCN(C[C@H]3CC[C@H](n4cc(NC(=O)c5cnn6ccc(N7C[C@H]8CC7CO8)nc56)c(C(F)F)n4)CC3)CC2)C[C@H](c2cccc3c2n(C)c(=O)n3C2CCC(=O)NC2=O)C1 (some centres unmarked) [I-579] | > 200 | > 200 |
| Cn1c(=O)n(C2CCC(=O)NC2=O)c2cccc([C@H]3C[C@](O)(CN4CCN(C[C@H]5CC[C@H](n6cc(NC(=O)c7cnn8ccc(N9C[C@H]%10CC9CO%10)nc78)c(C(F)F)n6)CC5)CC4)C3)c21 (some centres unmarked) [I-580] | > 200 | < 10 |
| Cn1c(=O)n(C2CCC(=O)NC2=O)c2cccc(N3CC(CO[C@@H]4CCN(C[C@H]5CC[C@H](n6cc(NC(=O)c7cnn8ccc(N9C[C@H]%10CC9CO%10)nc78)c(C(F)F)n6)CC5)C[C@@H]4F)C3)c21 (some centres unmarked) [I-585] | > 200 | < 10 |
| Cn1c(=O)n(C2CCC(=O)NC2=O)c2cccc(N3CC(CO[C@@H]4CCN(C[C@H]5CC[C@H](n6cc(NC(=O)c7cnn8ccc(N9C[C@H]%10CC9CO%10)nc78)c(C(F)F)n6)CC5)C[C@H]4F)C3)c21 (some centres unmarked) [I-586] | > 200 | < 10 |
| Cn1c(=O)n(C2CCC(=O)NC2=O)c2cccc(N3CC(CO[C@H]4CCN(C[C@H]5CC[C@H](n6cc(NC(=O)c7cnn8ccc(N9C[C@H]%10CC9CO%10)nc78)c(C(F)F)n6)CC5)C[C@@H]4F)C3)c21 (some centres unmarked) [I-587] | > 200 | < 10 |
| Cn1c(=O)n(C2CCC(=O)NC2=O)c2cccc(N3CC(CO[C@H]4CCN(C[C@H]5CC[C@H](n6cc(NC(=O)c7cnn8ccc(N9C[C@H]%10CC9CO%10)nc78)c(C(F)F)n6)CC5)C[C@H]4F)C3)c21 (some centres unmarked) [I-588] | > 200 | < 10 |
| Cn1c(=O)n(C2CCC(=O)NC2=O)c2cccc(C#CCO[C@@H]3CCN(C[C@H]4CC[C@H](n5cc(NC(=O)c6cnn7ccc(N8CCS(=O)(=O)CC8)nc67)c(C(F)F)n5)CC4)C[C@@H]3F)c21 (some centres unmarked) [I-589] | > 200 | > 200 |
| Cn1c(=O)n(C2CCC(=O)NC2=O)c2cccc(C#CCO[C@@H]3CCN(C[C@H]4CC[C@H](n5cc(NC(=O)c6cnn7ccc(N8CCS(=O)(=O)CC8)nc67)c(C(F)F)n5)CC4)C[C@H]3F)c21 (some centres unmarked) [I-590] | > 200 | > 200 |

Second part, the molecule after the results:

| DC50 [1] [nM] | DC50 [2] [nM] | Compound |
| --- | --- | --- |
| > 200 | < 10 | Cn1c(=O)n(C2CCC(=O)NC2=O)c2cccc(C3CCN(C[C@H]4CC[C@H](n5cc6cc(NC(=O)c7cccc(C(F)(F)F)n7)ccc6n5)CC4)CC3F)c21 (some centres unmarked) [I-553] |
| > 200 | 10 to 100 | Cn1c(=O)n(C2CCC(=O)NC2=O)c2cccc(C3CCN(C[C@H]4CC[C@H](n5cc6cc(NC(=O)c7cccc(C(F)(F)F)n7)c(F)cc6n5)CC4)CC3F)c21 (some centres unmarked) [I-554] |
| > 200 | 10 to 100 | CN(C[C@H]1CC[C@H](n2cc3cc(NC(=O)c4cccc(C(F)(F)F)n4)ccc3n2)CC1)C1CCN(c2cccc3c2n(C)c(=O)n3C2CCC(=O)NC2=O)CC1F (some centres unmarked) [I-555] |
| > 200 | > 200 | COc1cc2nn([C@H]3CC[C@H](CN(C)C4CCN(c5cccc6c5n(C)c(=O)n6C5CCC(=O)NC5=O)CC4F)CC3)cc2cc1NC(=O)c1cccc(C(F)(F)F)n1 (some centres unmarked) [I-556] |
| > 200 | > 200 | CN(C[C@H]1CC[C@H](n2cc3cc(NC(=O)c4cccc(C(F)(F)F)n4)c(C(F)F)cc3n2)CC1)C1CCN(c2cccc3c2n(C)c(=O)n3C2CCC(=O)NC2=O)CC1F (some centres unmarked) [I-557] |
| > 200 | > 200 | Cn1c(=O)n(C2CCC(=O)NC2=O)c2cccc([C@H]3C[C@@H]3CN3CCN(C[C@H]4CC[C@H](n5cc(NC(=O)c6cnn7ccc(N8C[C@H]9CC8CO9)nc67)c(C(F)F)n5)CC4)CC3)c21 (some centres unmarked) [I-573] |
| > 200 | > 200 | C[C@@H]([C@H]1C[C@H](c2cccc3c2n(C)c(=O)n3C2CCC(=O)NC2=O)C1)N1CCN(C[C@H]2CC[C@H](n3cc(NC(=O)c4cnn5ccc(N6C[C@H]7CC6CO7)nc45)c(C(F)F)n3)CC2)CC1 (some centres unmarked) [I-575] |
| > 200 | < 10 | Cn1c(=O)n(C2CCC(=O)NC2=O)c2cccc(C[C@H]3C[C@H](N4CCN(C[C@H]5CC[C@H](n6cc(NC(=O)c7cnn8ccc(N9C[C@H]%10CC9CO%10)nc78)c(C(F)F)n6)CC5)CC4)C3)c21 (some centres unmarked) [I-576] |
| > 200 | > 200 | Cn1c(=O)n(C2CCC(=O)NC2=O)c2cccc(O[C@H]3C[C@H](N4CCN(C[C@H]5CC[C@H](n6cc(NC(=O)c7cnn8ccc(N9C[C@H]%10CC9CO%10)nc78)c(C(F)F)n6)CC5)CC4)C3)c21 (some centres unmarked) [I-577] |
| > 200 | < 10 | Cn1c(=O)n(C2CCC(=O)NC2=O)c2cccc(N3CC(O[C@@H]4CCN(C[C@H]5CC[C@H](n6cc(NC(=O)c7cnn8ccc(N9C[C@H]%10C[C@@H]9CO%10)nc78)c(C(F)F)n6)CC5)C[C@@H]4F)C3)c21 (some centres unmarked) [I-581] |
| > 200 | > 200 | Cn1c(=O)n(C2CCC(=O)NC2=O)c2cccc(N3CC(O[C@@H]4CCN(C[C@H]5CC[C@H](n6cc(NC(=O)c7cnn8ccc(N9C[C@H]%10C[C@@H]9CO%10)nc78)c(C(F)F)n6)CC5)C[C@H]4F)C3)c21 (some centres unmarked) [I-582] |
| > 200 | > 200 | Cn1c(=O)n(C2CCC(=O)NC2=O)c2cccc(N3CC(O[C@H]4CCN(C[C@H]5CC[C@H](n6cc(NC(=O)c7cnn8ccc(N9C[C@H]%10C[C@@H]9CO%10)nc78)c(C(F)F)n6)CC5)C[C@@H]4F)C3)c21 (some centres unmarked) [I-583] |
| > 200 | > 200 | Cn1c(=O)n(C2CCC(=O)NC2=O)c2cccc(N3CC(O[C@H]4CCN(C[C@H]5CC[C@H](n6cc(NC(=O)c7cnn8ccc(N9C[C@H]%10C[C@@H]9CO%10)nc78)c(C(F)F)n6)CC5)C[C@H]4F)C3)c21 (some centres unmarked) [I-584] |
